Measured values from patent publication US11629171B2, “Beta-hairpin peptidomimetics” (POLYPHOR AG, priority 2017, dated 2023).
Values after ≈ are worked out from the molar mass of the structure shown. Where a SMILES comes first, the peptide text is derived from it. Bridges are numbered along the chain shown (N, C = ends). Roman numbers before positions name the chains, in order. [ ]: non-standard residue; d: D form. Pen = CC(C)(S)[C@H](N)C(=O)O; Tle = CC(C)(C)[C@H](N)C(=O)O; Hiv = CC(C)[C@H](O)C(=O)O; dDab = NCC[C@@H](N)C(=O)O; Dab = NCC[C@H](N)C(=O)O; Dap = NC[C@H](N)C(=O)O

Legend:
Assay type in all cases: cell-based
[1] = system: Pseudomonas aeruginosa ATCC 27853; settings: ATCC 27853
Outline: (§1)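 Peptides are tested in serial two-fold dilutions against about 10^6 CFU/mL in MH-II broth containing 0.002% P-80 (v/v, final). Plates incubate 18-20 h at 35° C, and the MIC is the lowest peptide level (μg/mL) showing no visible growth.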

[2] = system: Acinetobacter baumannii DSM 30008; settings: DSM 30008
Outline: as §1

[3] = system: Klebsiella pneumoniae 968733; settings: 968733
Outline: as §1

[4] = system: Acinetobacter baumannii 872842; settings: 872842
Outline: as §1

[5] = system: Escherichia coli 926415; settings: 926415
Outline: as §1

[6] = system: Klebsiella pneumoniae SSI #3010; settings: SSI #3010
Outline: as §1

[7] = system: Escherichia coli ATCC 25922; settings: ATCC 25922
Outline: as §1

[8] = system: Enterobacter cloacae 848840; settings: 848840
Outline: as §1

[9] = system: human red blood cells (hRBC); assay: Hemolysis; settings: red cells of human, 1 h, 200
Outline: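 Hemoglobin release from PBS-washed hRBC at 20% (v/v), incubated 1 h at 37° C with peptides at 200 μg/mL, is measured at 540 nm. Values are blank corrected and given as a fraction of Triton X-100 lysis × 100%.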

Pseudomonas aeruginosa ATCC 27853 MIC [1] [µg/mL] | Acinetobacter baumannii DSM 30008 MIC [2] [µg/mL] | MIC [3] [µg/mL] | MIC [4] [µg/mL] | MIC [5] [µg/mL] | Klebsiella pneumoniae SSI #3010 MIC [6] [µg/mL] | Escherichia coli ATCC 25922 MIC [7] [µg/mL] | MIC [8] [µg/mL] | MIC [1] [µg/mL] | MIC [2] [µg/mL] | MIC [6] [µg/mL] | MIC [7] [µg/mL] | Structure (SMILES) | Hemolysis at 200 μg/mL [9] [%]
0.125 | 0.0625 | 0.25 (≈ 0.104 µM) | 0.0625 (≈ 0.026 µM) | 0.125 (≈ 0.052 µM) | 0.125 | 0.0625 | 0.0625 (≈ 0.026 µM) | – | – | – | – | CC[C@H](C)[C@@H]1NC(=O)[C@H](CO)NC(=O)[C@H](Cc2c[nH]c3ccccc23)NC(=O)[C@H](CO)NC(=O)[C@@H](CCN)NC(=O)[C@H](CCC(=O)N[C@@H](CCN)C(=O)N[C@H](C(=O)N[C@@H](CN)C(=O)N[C@H]2CCNC(=O)[C@H]([C@@H](C)O)NC(=O)[C@H](CCN)NC(=O)[C@H](CCN)NC(=O)[C@H](CC(C)C)NC(=O)[C@@H](CC(C)C)NC(=O)[C@H](CCN)NC2=O)[C@@H](C)O)NC(=O)[C@H](CN)NC(=O)[C@H](Cc2ccc(O)cc2)NC(=O)[C@@H](NC(=O)[C@@H](NC(C)=O)C(C)C)CCNC(=O)CC[C@@H](C(=O)N[C@@H](CO)C(N)=O)NC1=O [Ex. 322] (I: Ac-V[Dab]Y[Dap]E[dDab]SWSIES-NH2 / II: [Dab]T[Dap][Dab][Dab][dL]L[Dab][Dab]T; lactam I:2-I:11, II:4-II:C; amide I:5-II:N) | <1
– | – | 4 (≈ 1.66 µM) | 0.25 (≈ 0.104 µM) | 0.5 (≈ 0.207 µM) | – | – | 0.5 (≈ 0.207 µM) | 0.25 (≈ 0.104 µM) | 0.0625 (≈ 0.0259 µM) | 0.25 (≈ 0.104 µM) | 0.125 (≈ 0.0518 µM) | CC(=O)N[C@H](C(=O)N[C@@H](CN)C(=O)N[C@@H](Cc1ccc(O)cc1)C(=O)N[C@H]1CSSC[C@@H](C(=O)N[C@H](C(=O)N[C@@H](C)C(=O)N[C@@H](CO)C(N)=O)C(C)(C)C)NC(=O)[C@H](Cc2c[nH]c3ccccc23)NC(=O)[C@H]([C@@H](C)O)NC(=O)[C@@H](CCN)NC(=O)[C@H](CCC(=O)N[C@@H](CCN)C(=O)N[C@H](C(=O)N[C@@H](CCN)C(=O)N[C@H]2CCNC(=O)[C@H]([C@@H](C)O)NC(=O)[C@H](CCN)NC(=O)[C@H](CCN)NC(=O)[C@H](CC(C)C)NC(=O)[C@@H](CC(C)C)NC(=O)[C@H](CCN)NC2=O)[C@@H](C)O)NC1=O)C(C)C [Ex. 179] (I: Ac-V[Dap]YCE[dDab]TWC[Tle]AS-NH2 / II: [Dab]T[Dab][Dab][Dab][dL]L[Dab][Dab]T; disulfide I:4-I:9; amide I:5-II:N; lactam II:4-II:C) | <1
0.125 | 0.0625 | 0.5 (≈ 0.21 µM) | 0.25 (≈ 0.105 µM) | 0.125 (≈ 0.0524 µM) | 0.125 | 0.0625 | 0.125 (≈ 0.0524 µM) | – | – | – | – | CC(C)C[C@@H]1NC(=O)[C@@H](CC(C)C)NC(=O)[C@H](CCN)NC(=O)[C@@H](NC(=O)[C@H](CN)NC(=O)[C@@H](NC(=O)[C@H](CCN)NC(=O)CC[C@@H]2NC(=O)[C@H](CCN)NC(=O)[C@H](Cc3ccc(O)cc3)NC(=O)[C@@H](NC(=O)[C@@H](O)C(C)C)CSSC(C)(C)[C@@H](C(=O)N[C@@H](CO)C(N)=O)NC(=O)[C@H](C(C)C)NC(=O)[C@H](CO)NC(=O)[C@H](Cc3c[nH]c4ccccc34)NC(=O)[C@H](CO)NC(=O)[C@@H](CCN)NC2=O)[C@@H](C)O)CCNC(=O)[C@H]([C@@H](C)O)NC(=O)[C@H](CCN)NC(=O)[C@H](CCN)NC1=O [Ex. 301] (I: H-[Hiv]CY[Dab]E[dDab]SWSV[Pen]S-NH2 / II: [Dab]T[Dap][Dab][Dab][dL]L[Dab][Dab]T; disulfide I:2-I:11; amide I:5-II:N; lactam II:4-II:C) | 2
– | – | 0.0625 (≈ 0.0264 µM) | 0.0625 (≈ 0.0264 µM) | 0.0625 (≈ 0.0264 µM) | – | – | 0.25 (≈ 0.105 µM) | 0.0625 (≈ 0.0264 µM) | 0.03125 (≈ 0.0132 µM) | 0.0625 (≈ 0.0264 µM) | 0.03125 (≈ 0.0132 µM) | CC(C)C[C@@H]1NC(=O)[C@@H](CC(C)C)NC(=O)[C@H](CCN)NC(=O)[C@@H](NC(=O)[C@H](CN)NC(=O)[C@@H](NC(=O)[C@H](CCN)NC(=O)CC[C@@H]2NC(=O)[C@H](CO)NC(=O)[C@H](Cc3ccc(O)cc3)NC(=O)[C@@H](NC(=O)[C@@H](O)C(C)C)CSSC[C@@H](C(=O)N[C@@H](CO)C(N)=O)NC(=O)[C@H](C(C)(C)C)NC(=O)[C@H](CO)NC(=O)[C@H](Cc3c[nH]c4ccccc34)NC(=O)[C@H](CCN)NC(=O)[C@@H](CCN)NC2=O)[C@@H](C)O)CCNC(=O)[C@H]([C@@H](C)O)NC(=O)[C@H](CCN)NC(=O)[C@H](CCN)NC1=O [Ex. 271] (I: H-[Hiv]CYSE[dDab][Dab]WS[Tle]CS-NH2 / II: [Dab]T[Dap][Dab][Dab][dL]L[Dab][Dab]T; disulfide I:2-I:11; amide I:5-II:N; lactam II:4-II:C) | <1
